This note sets out measurements from patent publication US11180494B2, “Substituted amino acids as integrin inhibitors” (Pliant Therapeutics, Inc., priority 2018, dated 2021).

Each structure is given as a SMILES string.

In the first experiment the target is human integrin αvβ6 (Homo sapiens (Human), UniProt P06756+P18564). In words: Proximity-based integrin receptor binding assay (ALPHASCREEN) for inhibitor potency. The note with it: inhibition of binding of TGF-b1 LAP to human integrin αvβ6; values given in ranges. The method, then: To gauge the potency of inhibitors of binding to human integrin αvβ6, inhibitor compounds and integrin were incubated together with TGF-b1 LAP and biotinylated anti-LAP antibody plus acceptor and donor beads, following the manufacture's recommendations. The donor beads were coated with streptavidin. […] All incubations occurred at room temperatures in 50 mM Tris-HCl, pH 7.5, 0.1% BSA supplemented with 1 mM each CaCl2 and MgCl2.
Chain of human integrin αvβ6 (P06756 31-992): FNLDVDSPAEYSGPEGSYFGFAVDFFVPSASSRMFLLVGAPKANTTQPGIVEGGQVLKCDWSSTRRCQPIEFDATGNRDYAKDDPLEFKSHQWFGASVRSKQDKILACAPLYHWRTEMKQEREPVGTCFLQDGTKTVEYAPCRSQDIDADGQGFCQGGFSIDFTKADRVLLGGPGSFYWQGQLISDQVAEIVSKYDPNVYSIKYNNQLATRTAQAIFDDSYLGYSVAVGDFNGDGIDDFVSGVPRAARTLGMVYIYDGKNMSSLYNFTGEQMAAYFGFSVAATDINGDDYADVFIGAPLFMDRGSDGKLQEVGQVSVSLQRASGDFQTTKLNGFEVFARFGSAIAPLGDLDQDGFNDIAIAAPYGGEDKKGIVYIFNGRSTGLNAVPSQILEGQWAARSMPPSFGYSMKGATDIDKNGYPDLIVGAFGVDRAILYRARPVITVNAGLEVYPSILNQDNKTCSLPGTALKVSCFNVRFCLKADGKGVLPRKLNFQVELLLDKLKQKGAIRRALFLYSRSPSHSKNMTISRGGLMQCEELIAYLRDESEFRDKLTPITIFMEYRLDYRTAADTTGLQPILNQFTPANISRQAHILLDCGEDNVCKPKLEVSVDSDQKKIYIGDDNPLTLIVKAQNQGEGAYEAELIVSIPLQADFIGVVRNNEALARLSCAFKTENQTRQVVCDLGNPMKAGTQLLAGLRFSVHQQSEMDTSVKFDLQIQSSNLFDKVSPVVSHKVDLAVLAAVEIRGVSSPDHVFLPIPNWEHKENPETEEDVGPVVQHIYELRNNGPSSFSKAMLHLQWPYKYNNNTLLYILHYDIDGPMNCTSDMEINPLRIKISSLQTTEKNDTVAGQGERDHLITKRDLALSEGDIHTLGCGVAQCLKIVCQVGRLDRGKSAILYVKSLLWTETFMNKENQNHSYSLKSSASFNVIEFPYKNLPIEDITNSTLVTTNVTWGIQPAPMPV
Chain of human integrin αvβ6 (P18564 22-707): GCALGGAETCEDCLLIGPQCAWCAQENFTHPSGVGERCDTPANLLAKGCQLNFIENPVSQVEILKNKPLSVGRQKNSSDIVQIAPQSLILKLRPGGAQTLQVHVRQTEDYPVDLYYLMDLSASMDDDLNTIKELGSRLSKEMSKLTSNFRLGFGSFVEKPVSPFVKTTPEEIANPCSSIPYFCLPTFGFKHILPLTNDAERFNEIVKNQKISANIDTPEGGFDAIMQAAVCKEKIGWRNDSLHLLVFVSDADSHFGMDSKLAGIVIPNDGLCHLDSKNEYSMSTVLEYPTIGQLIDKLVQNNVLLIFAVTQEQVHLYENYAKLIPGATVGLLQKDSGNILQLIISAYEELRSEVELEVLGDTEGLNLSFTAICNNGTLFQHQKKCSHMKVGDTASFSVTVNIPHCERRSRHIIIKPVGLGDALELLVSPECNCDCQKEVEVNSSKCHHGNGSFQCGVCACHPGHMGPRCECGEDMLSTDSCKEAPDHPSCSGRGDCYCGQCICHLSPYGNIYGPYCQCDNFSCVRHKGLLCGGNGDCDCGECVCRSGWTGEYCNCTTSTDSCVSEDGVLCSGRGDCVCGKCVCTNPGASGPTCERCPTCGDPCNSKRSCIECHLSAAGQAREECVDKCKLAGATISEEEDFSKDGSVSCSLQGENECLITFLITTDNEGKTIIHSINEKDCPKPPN
The order of reagent addition was as follows:
1. Alpha-v-beta-6 integrin, test inhibitor compound, LAP, biotinylated anti-LAP antibody and acceptor beads were all added together.
2. After 2 hours, donor beads were added. After another 30 minute incubation, samples were then read.
Integrin binding was evaluated by exciting donor beads at 680 nm, and measuring the fluorescent signal produced, between 520-620 nm, using a Biotek Instruments (Winooski, Vt., USA) SynergyNeo2 multimode plate reader. […] Data analysis for IC50 determinations was carried out by nonlinear four parameter logistic regression analysis using Dotmatics ELN Software (Core Informatics Inc., Branford, Conn.).
By IC50 is commonly meant the concentration needed to halve the response being measured. With `CC1(CC(=O)N[C@@H](CCO[C@H]2C[C@H](CCc3ccc4c(n3)NCCC4)C2)C(=O)O)CC1` [Compound 125, N-(2-(1-methylcyclopropyl)acetyl)-O-(trans-3-(2-(5,6,7,8-tetrahydro-1,8-naphthyridin-2-yl)ethyl)cyclobutyl)homoserine], the concentration for half-maximal inhibition (IC50) fell in the range of 50 to 250 nM.

In the case of `CN(C(=O)N[C@@H](CCO[C@H]1C[C@H](CCc2ccc3c(n2)NCCC3)C1)C(=O)O)C(C)(C)C` [Compound 119, N-(tert-butyl(methyl)carbamoyl)-O-(trans-3-(2-(5,6,7,8-tetrahydro-1,8-naphthyridin-2-yl)ethyl)cyclobutyl)homoserine], the IC50 is 50 to 250 nM.

Take `C[C@H](OC(=O)N[C@@H](CCO[C@H]1C[C@H](CCc2ccc3c(n2)NCCC3)C1)C(=O)O)c1ccccc1` [Compound 141, N—(((S)-1-phenylethoxy)carbonyl)-O-(trans-3-(2-(5,6,7,8-tetrahydro-1,8-naphthyridin-2-yl)ethyl)cyclobutyl)homoserine]: the IC50 was below 50 nM.

As for `CC(C)(C)OC(=O)N1CC[C@@H](OC(=O)N[C@@H](CCO[C@H]2C[C@H](CCc3ccc4c(n3)NCCC4)C2)C(=O)O)C1` [Compound 138, N—((((R)-1-(tert-butoxycarbonyl)pyrrolidin-3-yl)oxy)carbonyl)-O-(trans-3-(2-(5,6,7,8-tetrahydro-1,8-naphthyridin-2-yl)ethyl)cyclobutyl)homoserine], the IC50 is 50 to 250 nM.

Regarding `Cc1cncc(Cl)c1C(=O)N[C@@H](CCO[C@H]1C[C@@H](CCc2ccc3c(n2)NCCC3)C1)C(=O)O` [Compound 199, N-(3-chloro-5-methylisonicotinoyl)-O-(cis-3-(2-(5,6,7,8-tetrahydro-1,8-naphthyridin-2-yl)ethyl)cyclobutyl)homoserine], the IC50 lay within 50 to 250 nM.

For the compound `CC(C)(OC(=O)N[C@@H](CCO[C@H]1C[C@H](CCc2ccc3c(n2)NCCC3)C1)C(=O)O)C(F)(F)F` [Compound 115, O-(trans-3-(2-(5,6,7,8-tetrahydro-1,8-naphthyridin-2-yl)ethyl)cyclobutyl)-N-(((1,1,1-trifluoro-2-methylpropan-2-yl)oxy)carbonyl)homoserine], the concentration for half-maximal inhibition (IC50) is below 50 nM.

Turning to `Cn1cc(-c2cccc(C(=O)NC(CCO[C@H]3C[C@H](CCc4ccc5c(n4)NCCC5)C3)C(=O)O)c2)cn1` (stereo partly drawn) [Compound 72], the IC50 was below 50 nM.

Consider `CS(=O)(=O)N1CC[C@H](OC(=O)N[C@@H](CCO[C@H]2C[C@H](CCc3ccc4c(n3)NCCC4)C2)C(=O)O)C1` [Compound 136, N—((((S)-1-(methylsulfonyl)pyrrolidin-3-yl)oxy)carbonyl)-O-(trans-3-(2-(5,6,7,8-tetrahydro-1,8-naphthyridin-2-yl)ethyl)cyclobutyl)homoserine], for which the IC50 is below 50 nM.

Turning to `O=C(NC(CCOCCCCc1ccc2c(n1)NCCC2)C(=O)O)c1c(Cl)cccc1Cl` (stereo not drawn) [Compound 188, N-(2,6-dichlorobenzoyl)-O-(4-(5,6,7,8-tetrahydro-1,8-naphthyridin-2-yl)butyl)homoserine], the half-maximal inhibitory concentration (IC50) fell in the range of 50 to 250 nM.

As to `O=C(O)[C@H](CCO[C@H]1C[C@@H](CCc2ccc3c(n2)NCCC3)C1)NC(=O)C1(C(F)(F)F)CCOCC1` [Compound 183, O-(cis-3-(2-(5,6,7,8-tetrahydro-1,8-naphthyridin-2-yl)ethyl)cyclobutyl)-N-(4-(trifluoromethyl)tetrahydro-2H-pyran-4-carbonyl)homoserine], the half-maximal inhibitory concentration (IC50) was 50 to 250 nM.

As to `Cn1cc(-c2cccc(C(=O)NC(CCOCCCCc3ccc4c(n3)NCCC4)C(=O)O)c2)cn1` (stereo not drawn) [Compound 73, N-(3-(1-methyl-1H-pyrazol-4-yl)benzoyl)-O-(4-(5,6,7,8-tetrahydro-1,8-naphthyridin-2-yl)butyl)homoserine], the half-maximal inhibitory concentration (IC50) is 50 to 250 nM.

As to `O=C(N[C@@H](CCO[C@H]1C[C@H](CCc2ccc3c(n2)NCCC3)C1)C(=O)O)O[C@H]1CCCC[C@@H]1c1ccccc1` [Compound 146, N-((((1S,2R)-2-phenylcyclohexyl)oxy)carbonyl)-O-(trans-3-(2-(5,6,7,8-tetrahydro-1,8-naphthyridin-2-yl)ethyl)cyclobutyl)homoserine], the IC50 fell in the range of 50 to 250 nM.

For the compound `O=C(N[C@@H](CCO[C@H]1C[C@H](CCc2ccc3c(n2)NCCC3)C1)C(=O)O)c1ccc(F)cc1Cl` [Compound 25, N-(2-chloro-4-fluorobenzoyl)-O-(trans-3-(2-(5,6,7,8-tetrahydro-1,8-naphthyridin-2-yl)ethyl)cyclobutyl)homoserine], the IC50 was below 50 nM.

Take `C[C@H](CNC(=O)OC(C)(C)C)OC(=O)N[C@@H](CCO[C@H]1C[C@H](CCc2ccc3c(n2)NCCC3)C1)C(=O)O` [Compound 153, N—((((R)-1-((tert-butoxycarbonyl)amino)propan-2-yl)oxy)carbonyl)-O-(trans-3-(2-(5,6,7,8-tetrahydro-1,8-naphthyridin-2-yl)ethyl)cyclobutyl)homoserine]: the half-inhibitory concentration (IC50) was below 50 nM.

On to `CC(C)CC(=O)N[C@@H](CCO[C@H]1C[C@H](CCc2ccc3c(n2)NCCC3)C1)C(=O)O` [Compound 123, N-(3-methylbutanoyl)-O-(trans-3-(2-(5,6,7,8-tetrahydro-1,8-naphthyridin-2-yl)ethyl)cyclobutyl)homoserine], for which the IC50 is below 50 nM.

Take `CC(C)(CC#N)C(=O)NC(CCO[C@H]1C[C@H](CCc2ccc3c(n2)NCCC3)C1)C(=O)O` (stereo partly drawn) [Compound 93, N-(3-cyano-2,2-dimethylpropanoyl)-O-(trans-3-(2-(5,6,7,8-tetrahydro-1,8-naphthyridin-2-yl)ethyl)cyclobutyl)homoserine]: the 50% inhibitory concentration (IC50) lay in the range of 50 to 250 nM.

Regarding `O=C(N[C@@H](CCO[C@H]1C[C@H](CCc2ccc3c(n2)NCCC3)C1)C(=O)O)c1cccc(C2CC2)c1` [Compound 56, N-(3-cyclopropylbenzoyl)-O-(trans-3-(2-(5,6,7,8-tetrahydro-1,8-naphthyridin-2-yl)ethyl)cyclobutyl)homoserine], the half-maximal inhibitory concentration (IC50) fell in the range of 50 to 250 nM.

Turning to `Cn1ncc2c(C(=O)NC(CCOCCCCc3ccc4c(n3)NCCC4)C(=O)O)cccc21` (stereo not drawn) [Compound 4, N-(1-methyl-1H-indazole-4-carbonyl)-O-(4-(5,6,7,8-tetrahydro-1,8-naphthyridin-2-yl)butyl)homoserine], the IC50 was above 1000 nM.

`O=C(N[C@@H](CCO[C@H]1C[C@H](CCc2ccc3c(n2)NCCC3)C1)C(=O)O)c1cccc(Cl)c1Cl` [Compound 30, N-(2,3-dichlorobenzoyl)-O-(trans-3-(2-(5,6,7,8-tetrahydro-1,8-naphthyridin-2-yl)ethyl)cyclobutyl)homoserine]: the IC50 is below 50 nM.

Regarding `CCC1(C(=O)N[C@@H](CCO[C@H]2C[C@H](CCc3ccc4c(n3)NCCC4)C2)C(=O)O)CCC(F)(F)CC1` [Compound 181, N-(1-ethyl-4,4-difluorocyclohexane-1-carbonyl)-O-(trans-3-(2-(5,6,7,8-tetrahydro-1,8-naphthyridin-2-yl)ethyl)cyclobutyl)homoserine], the IC50 is below 50 nM.

Still in this experiment, the particulars now being: inhibition of binding of TGF-b1 LAP to human integrin αvβ6; values given in ranges; listed as 61*.
As for `O=C(NC(CCO[C@H]1C[C@H](CCc2ccc3c(n2)NCCC3)C1)C(=O)O)c1cccc(-c2cncs2)c1` (stereo partly drawn) [Compound 61, O-(trans-3-(2-(5,6,7,8-tetrahydro-1,8-naphthyridin-2-yl)ethyl)cyclobutyl)-N-(3-(thiazol-5-yl)benzoyl)homoserine], the IC50 was above 1000 nM.
